Results reported in US20260086093A1, “METHODS TO DETERMINE DRUG TARGET RESIDENCE TIME AND TO SELECT BEST DRUG-TARGET CANDIDATES” (BiognoSYS AG, priority 2022, published 2026).

Experiments:
[1] = target: T1, phoshatase PP2A-alpha (PPP2CA) (Homo sapiens, UniProt P67775); test: Jump-dilution LiP-MS residence-time pattern, Calyculin A on PPP2CA; assay type: binding; details: 0 to 60 minutes after 100-fold jump-dilution; FIG. 7
T1 construct: endogenous in cells; host or cells: native cellular proteome
Procedure: Native proteomes were incubated with the ligand of interested (Staurosporine or Calyculin A)—lower panel—or with the solvent (DMSO)—upper panel. The sample treated with DMSO serves as negative control, and it is used to confirm that the observed effect is derived from the interaction of the Ligand with its Targets. The proteomes were then diluted by a factor of 100 (jump-dilution method), and aliquots with a sample of the ligand-bound proteome were extracted at distinct time points after dilution. […] The samples incubated for the distinct times were then subjected to a limited proteolysis step using LiP-MS or DarkLiP-MS, and measured by mass spectrometry. […]
Calyculin A is a natural compound that acts as an potent and irreversible inhibitor of serine/threonine protein phosphatases. To show the application of the LiP-MS technology for the measurement of irreversible drug-residence times, the experimental workflow described in FIGS. 3, 4 and 5 was applied to the phosphatase inhibitor Calyculin A. Native cellular proteomes were treated with Calyculin A or DMSO (vehicle) in duplicates, diluted 100 fold and analyzed by LiP-MS. […]

Kynureninase (KYNU) = target: T2, Kynureninase (KYNU) (Homo sapiens, UniProt Q16719); test: Jump-dilution LiP-MS, Calyculin A on non-target KYNU; assay type: binding; details: entire length of the experiment after 100-fold jump-dilution; FIG. 8
T2 construct: endogenous in cells; host or cells: native cellular proteome
T2 sequence (Q16719 1-465): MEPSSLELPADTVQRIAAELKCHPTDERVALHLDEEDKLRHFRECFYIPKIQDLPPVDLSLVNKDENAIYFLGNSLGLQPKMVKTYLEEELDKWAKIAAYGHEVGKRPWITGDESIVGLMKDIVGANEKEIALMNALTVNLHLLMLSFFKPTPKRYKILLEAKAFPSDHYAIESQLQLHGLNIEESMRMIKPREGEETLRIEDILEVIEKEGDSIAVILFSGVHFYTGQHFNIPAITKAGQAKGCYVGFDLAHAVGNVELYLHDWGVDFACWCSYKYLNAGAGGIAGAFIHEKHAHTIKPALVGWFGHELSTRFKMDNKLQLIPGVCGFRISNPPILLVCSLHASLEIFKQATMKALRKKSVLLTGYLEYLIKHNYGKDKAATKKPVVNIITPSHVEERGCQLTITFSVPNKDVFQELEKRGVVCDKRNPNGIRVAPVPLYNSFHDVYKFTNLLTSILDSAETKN
Procedure: (§1) Native proteomes were incubated with the ligand of interested (Staurosporine or Calyculin A)—lower panel—or with the solvent (DMSO)—upper panel. The sample treated with DMSO serves as negative control, and it is used to confirm that the observed effect is derived from the interaction of the Ligand with its Targets. The proteomes were then diluted by a factor of 100 (jump-dilution method), and aliquots with a sample of the ligand-bound proteome were extracted at distinct time points after dilution. Due to the reduction of the concentration of the Ligand in solution (as consequence to the jump-dilution), new binding events between Ligand and Target are very unlikely, and consequently it is expected that the proportion of Ligand-bound protein Target decreases over time, as the complex Ligand-Target dissociates. The samples incubated for the distinct times were then subjected to a limited proteolysis step using LiP-MS or DarkLiP-MS, and measured by mass spectrometry. In the right intensity (I) as a function of retention time (RT is given.
(§2) For both LiP-MS and DarkLiP-MS, the limited proteolysis is performed with the unspecific protease thermolysin. After incubation for a short amount of time, the reaction is stopped by addition of EDTA.
For processing of LiP-MS experiments (1), the samples are dried after stopping the reaction. […]

[2] = system: CDK1, CDK2, CDK4, CDK6, CDK7 and CDK9; details: towards CDK1, CDK2, CDK4, CDK6, CDK7 and CDK9; cited from earlier work
[3] = target: T3, Dual specificity mitogen-activated protein kinase kinase 3 (MP2K3) (Homo sapiens, UniProt P46734); test: Jump-dilution LiP-MS residence time, complex MP2K3-Staurosporine; assay type: binding; details: for Half-life: time to 50% decrease of relative peptide abundance, 4-parameter logistic fit, 100-fold jump dilution, native cellular proteome
T3 construct: endogenous in cells; host or cells: native cellular proteome
T3 sequence (P46734 1-347): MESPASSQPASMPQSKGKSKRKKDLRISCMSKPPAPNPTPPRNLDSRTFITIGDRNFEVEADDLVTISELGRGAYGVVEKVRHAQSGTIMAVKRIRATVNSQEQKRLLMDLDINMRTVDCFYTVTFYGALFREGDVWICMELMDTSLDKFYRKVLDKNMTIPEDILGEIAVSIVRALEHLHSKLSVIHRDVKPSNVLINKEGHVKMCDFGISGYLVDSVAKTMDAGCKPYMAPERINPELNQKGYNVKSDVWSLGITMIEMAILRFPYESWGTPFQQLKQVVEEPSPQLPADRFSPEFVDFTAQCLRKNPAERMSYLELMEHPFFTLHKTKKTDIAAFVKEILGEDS
Procedure: as §1, §2
For processing of LiP-MS experiments (1), the samples are dried after stopping the reaction. After re-solubilization with urea, the partially-fragmented proteome is reduced and alkylated, diluted with ammonium bicarbonate, and treated with LysC and Trypsin to generate a fully fragmented peptide sample. This peptide sample is acidified with TFA and cleaned with a C18 resin before analysis by mass spectrometry.
Staurosporine is a natural compound that mimics the biological molecule ATP and acts as a promiscuous kinase inhibitor. Due to the similarities to ATP, Staurosporine has short residence times towards its protein Targets. To show the application of the LiP-MS technology for the measurement of short drug-residence times, the experimental workflow described in FIGS. 3, 4 and 5 was applied to the promiscuous kinase inhibitor Staurosporine. Native cellular proteomes were treated with Staurosporine or DMSO (vehicle) in duplicates, diluted 100 fold and analyzed by LiP-MS. The results of Example 1 are illustrated in FIG. 6. The graphs of FIG. 6 show the average abundances (y-axis) of four different peptides Peptide 1-Peptide 4 of the kinase MP2K3 measured between 0 and 60 minutes after jump-dilution (x-axis). The peptides Peptide 1-Peptide 4 are described in the database PeptideAtlas with the accessions PAp01457867, Pap00639637, PAp02016489 and PAp00503812. The graphs show a difference in peptide abundance between Staurosporine and DMSO, which is larger at earlier time points after dilution (between 0 and 30 min). The difference in abundance between Staurosporine-treated samples and DMSO decreases has time progresses.
Accordingly to equation 1, the residence-time of Staurosporine towards MP2K3 can be determined based on the half-life of the complex MP2K3-Staurosporine. Since the half-life of the complex MP2K3-Staurosporine corresponds to the interval of time that led to a reduction of peptide abundance by 50%, we fit the values of peptide abundance to a 4-parameter logistic curve. Thereby we obtained the time that corresponded to a decrease of relative peptide abundance by 50% (Table 2). Since each peptide generates a slightly different value for the half-life of the complex due experimental variability, we calculated the median of the 4 values obtained based on the four graphs of FIG. 6.

T1 sequence (P67775 whole entry): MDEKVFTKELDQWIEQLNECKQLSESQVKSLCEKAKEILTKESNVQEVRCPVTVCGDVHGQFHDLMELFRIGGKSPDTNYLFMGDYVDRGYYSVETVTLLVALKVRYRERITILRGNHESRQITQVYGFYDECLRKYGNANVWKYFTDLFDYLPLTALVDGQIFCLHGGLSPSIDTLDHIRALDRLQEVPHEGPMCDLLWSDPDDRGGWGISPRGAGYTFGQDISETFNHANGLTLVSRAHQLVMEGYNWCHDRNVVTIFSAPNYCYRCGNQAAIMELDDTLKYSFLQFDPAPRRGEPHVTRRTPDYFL

COC[C@@H]([C@H](O)[C@H](O)C(=O)NCC[C@H](C)c1nc(/C=C/C[C@@H]2O[C@]3(C[C@@H](O)[C@@H]2C)O[C@H]([C@H](C[C@H](O)[C@H](C)[C@H](O)[C@H](C)/C=C(C)/C(C)=C/C=C/C(C)=C\C#N)OC)[C@H](OP(=O)(O)O)C3(C)C)co1)N(C)C [Calyculin A]
Structural alteration of PPP2CA (Peptide 5 abundance vs DMSO) over time after jump-dilution [1]: did not disappear over time
Binding / structural alteration of KYNU (Peptide 6 intensity vs DMSO) (Kynureninase (KYNU)): did not bind to KYNU

C[C@@H](O)[C@@H](C)Oc1nc(Nc2ccc(S(=N)(=O)C3CC3)cc2)ncc1C(F)(F)F (stereo partly drawn) [Roniclib]
IC50 values [2]: nanomolar range

CN[C@@H]1C[C@H]2O[C@@](C)([C@@H]1OC)n1c3ccccc3c3c4c(c5c6ccccc6n2c5c31)C(=O)NC4 [Staurosporine]
Structural alteration of MP2K3 (peptide abundance vs DMSO) over time after jump-dilution ([3]; 0 to 60 minutes after 100-fold jump-dilution, FIG. 6): structural alteration disappeared over time
Half-life ([3]; Peptide 1 of MP2K3): 25 min
Half-life ([3]; Peptide 2 of MP2K3): 61 min
Half-life ([3]; Peptide 3 of MP2K3): 129 min
Half-life ([3]; Peptide 4 of MP2K3): 29 min
Median half-life ([3]; median of the 4 peptide half-lives): 45 min
